A short description of assay [1]: miR-122 activators in hepatoma reporter cells, dose response, cell-based, Huh7 psiCHECK-miR122, Renilla luciferase, cherry-picked (AID 651956).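 Further: huh7 hepatoma cells stably carrying a psiCHECK-2 miR-122 sensor plasmid; renilla luciferase signal reporting endogenous miR-122 activity after 48 h compound exposure.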 It is filed as functional.
A short description of assay [2]: HEK293T cytotoxicity, dose response, cytotoxicity control for miR-122 modulator project, cell-based, inhibitor set, cherry-pick, set 2 (AID 720697). It is filed as functional.
Assay [3] has as its target T1, DNA repair protein RAD52 homolog (Homo sapiens, UniProt P43351).
T1 sequence (P43351 whole entry): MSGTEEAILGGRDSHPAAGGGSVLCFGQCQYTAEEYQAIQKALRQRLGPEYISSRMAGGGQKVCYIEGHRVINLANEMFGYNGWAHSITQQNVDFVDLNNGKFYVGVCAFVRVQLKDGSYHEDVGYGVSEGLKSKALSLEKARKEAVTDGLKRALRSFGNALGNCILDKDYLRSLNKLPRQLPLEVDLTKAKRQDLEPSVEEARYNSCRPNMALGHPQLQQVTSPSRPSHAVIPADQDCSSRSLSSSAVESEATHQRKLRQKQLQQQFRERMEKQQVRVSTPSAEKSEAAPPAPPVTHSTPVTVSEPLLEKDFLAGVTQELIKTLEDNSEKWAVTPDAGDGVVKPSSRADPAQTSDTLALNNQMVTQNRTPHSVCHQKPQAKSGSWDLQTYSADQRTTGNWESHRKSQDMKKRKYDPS
It is filed as functional, biochemical.

Assay [4] in a line: human group III sPLA2 inhibitors, dose response, biochemical, QFRET, IC50 (AID 743457).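 Further: green fluorescence rise as the enzyme cleaves BODIPY PC-A2 in liposomes; potency for inhibition of the enzyme.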
In assay [5] the target is T2, Estrogen receptor beta (Homo sapiens, UniProt Q92731).
The target in assay [6] is T2, Estrogen receptor beta. In words: ERβ–SRC-3 coactivator interaction inhibitors, confirmation, orthogonal assay, biochemical, ELISA, streptavidin-HRP readout (AID 1060).
The target of another assay is Major prion protein (Homo sapiens, UniProt P04156). It is filed as functional, cell-based.
A short description of assay [7]: cells.
Assay [8] concerns the target Protein-tyrosine kinase 2-beta (Homo sapiens, UniProt Q14289).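 Further: potency of inhibitors of PYK2 kinase phosphorylation of poly-GT substrate.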
The nature of assay [9]: T. cruzi growth inhibition in host cells, dose response, cell-based, plate reader, dry powder, set 2 (AID 652275). It is filed as functional.
Another assay deals with Paired box protein Pax-8 (Homo sapiens, UniProt Q06710). In words: inhibitors of PAX8-driven TPO luciferase reporter, dose response, RMG-I cells, cherry-pick (AID 687027).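 Further: luciferase reporter driven by Pax8 target thyroperoxidase promoter measured by SteadyGlo luminescence.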 In kind it is functional, cell-based. In general terms: A reporter such as luciferase makes a cellular process visible.
Assay [10] is described as follows: NIH:OVCAR-3 ovarian cancer cell cytotoxicity, dose response, PAX8 inhibitor project, plate reader, dry powder samples (AID 743044). In kind it is functional, cell-based.
Assay [11] in a line: IGROV1 ovarian cancer cell cytotoxicity, dose response, PAX8 inhibitor project, plate reader, dry powder samples (AID 743043). It is filed as functional, cell-based. The conditions noted are these: IGROV-1.
Assay [12] is described as follows: HEK293 cell cytotoxicity, dose response, cytotoxicity control, cherry-picks, set 5 (AID 1053117). In kind it is functional, cell-based.
The target in assay [13] is T3, Sentrin-specific protease 8 (Homo sapiens, UniProt Q96LD8).
T3 sequence (Q96LD8 whole entry): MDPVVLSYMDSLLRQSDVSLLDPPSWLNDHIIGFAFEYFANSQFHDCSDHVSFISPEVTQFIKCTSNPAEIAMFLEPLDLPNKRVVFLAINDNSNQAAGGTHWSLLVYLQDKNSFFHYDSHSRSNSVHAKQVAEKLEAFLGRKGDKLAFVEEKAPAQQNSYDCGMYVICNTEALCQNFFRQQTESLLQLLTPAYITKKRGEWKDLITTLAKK
As to the kind of experiment: SENP8 protease inhibitors, SAR follow-up, biochemical, luminescence (AID 504501). In kind it is functional.

The target of a further assay is T4, Caspase-3 (Homo sapiens, UniProt P42574).
T4 sequence (P42574 whole entry): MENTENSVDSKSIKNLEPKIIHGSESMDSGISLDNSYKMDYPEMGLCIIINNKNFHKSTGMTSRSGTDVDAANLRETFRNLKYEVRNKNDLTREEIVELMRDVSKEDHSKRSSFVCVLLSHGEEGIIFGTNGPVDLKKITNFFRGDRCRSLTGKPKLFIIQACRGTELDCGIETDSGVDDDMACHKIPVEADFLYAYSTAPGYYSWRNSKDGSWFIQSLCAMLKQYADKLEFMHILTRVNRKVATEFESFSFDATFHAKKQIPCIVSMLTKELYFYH
In words: SAR Analysis of small molecule inhibitors of Sentrin-specific proteases (SENPs) using a Caspase-3 Selectivity assay. [Related pubchem assays (depositor defined):AID2540, AID2599, AID434973, AID489001]. It is filed as functional.

Assay [14] deals with T5, Sentrin-specific protease 6 (Homo sapiens, UniProt Q9GZR1).
T5 sequence (Q9GZR1 whole entry): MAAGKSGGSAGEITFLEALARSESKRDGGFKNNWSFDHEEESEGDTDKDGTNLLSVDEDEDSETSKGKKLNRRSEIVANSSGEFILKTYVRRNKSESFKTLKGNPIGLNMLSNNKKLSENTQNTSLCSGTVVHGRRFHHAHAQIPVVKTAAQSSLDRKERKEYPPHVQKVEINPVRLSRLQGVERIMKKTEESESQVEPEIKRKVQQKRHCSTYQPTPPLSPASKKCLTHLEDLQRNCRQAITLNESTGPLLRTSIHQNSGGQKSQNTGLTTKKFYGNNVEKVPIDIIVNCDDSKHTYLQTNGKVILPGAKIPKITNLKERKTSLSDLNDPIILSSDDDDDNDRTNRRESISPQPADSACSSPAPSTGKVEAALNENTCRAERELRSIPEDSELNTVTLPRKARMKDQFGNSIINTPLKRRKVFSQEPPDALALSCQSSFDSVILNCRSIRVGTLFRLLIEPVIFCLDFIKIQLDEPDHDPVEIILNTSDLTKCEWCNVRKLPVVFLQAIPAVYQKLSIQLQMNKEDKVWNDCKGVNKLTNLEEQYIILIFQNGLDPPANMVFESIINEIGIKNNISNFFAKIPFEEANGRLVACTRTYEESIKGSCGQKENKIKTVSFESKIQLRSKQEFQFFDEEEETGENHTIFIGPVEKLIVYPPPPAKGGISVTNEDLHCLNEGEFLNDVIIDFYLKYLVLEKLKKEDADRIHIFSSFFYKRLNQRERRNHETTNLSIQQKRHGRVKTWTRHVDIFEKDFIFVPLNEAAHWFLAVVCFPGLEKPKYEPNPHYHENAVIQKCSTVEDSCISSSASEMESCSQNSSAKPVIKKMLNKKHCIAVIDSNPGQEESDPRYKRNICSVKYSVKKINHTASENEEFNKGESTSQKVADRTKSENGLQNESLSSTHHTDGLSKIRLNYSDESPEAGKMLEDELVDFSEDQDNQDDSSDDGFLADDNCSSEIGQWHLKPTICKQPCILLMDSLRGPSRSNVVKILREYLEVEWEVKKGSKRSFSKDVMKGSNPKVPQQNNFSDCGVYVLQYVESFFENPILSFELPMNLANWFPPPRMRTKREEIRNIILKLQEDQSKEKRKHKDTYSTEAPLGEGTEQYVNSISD
As to the kind of experiment: SAR Analysis of small molecule inhibitors of Sentrin-specific protease 6 (SENP6) using a Luminescent assay. [Related pubchem assays (depositor defined):AID2582, AID2599]. It is filed as functional.

Assay [15] is described as follows: cells. In kind it is functional, cell-based.
A short description of assay [16]: cells. In kind it is functional, cell-based. The source holds these as a separate data set.
Assay [17] in a line: non-specific cell cytotoxicity, dose response, cytotoxicity control for PAX8 inhibitor project, plate reader, dry powder samples (AID 743021). In kind it is functional, cell-based.
A short description of assay [18]: P. falciparum Dd2 growth inhibitors, dose response, SYBR Green, cherry-picked samples (AID 1159567). It is filed as functional, cell-based.
Assay [19] in a line: HepG2 cell cytotoxicity, dose response, cytotoxicity control, cherry-picked samples (AID 1159577). In kind it is functional, cell-based.

Active and inactive are the calls of the source.
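Wherever EC50 is given: agonist potency from rise in intracellular calcium fluorescence.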

On to `CN(C)C(=O)c1ccc(NC(=O)c2cc(-n3cnnc3)ccc2Cl)cc1`, for which the figures for the AC50 in [1] and in assay [2] were 1.1 µM (active) and 1.88 µM (active), respectively.

`N=C(N)/N=N/C(=N\Nc1ccccc1)c1ccc(Cl)cc1`: in [3], the AC50 was 12.7 µM (active). Also, the IC50 in assay [4] is > 122 µM (inactive).

Regarding `CCC(Sc1ncnc2sc(C)c(C)c12)C(=O)OC` (stereo unspecified), the IC50 was 14.1 µM (active) on Estrogen receptor beta [5], < 0.023 µM (not active) against Estrogen receptor beta [6], 2.46 µM (active) at Major prion protein and > 138 µM (inactive) in the assay “cells [7]”.

Consider `NC(=O)c1csc(-c2ccncc2)n1`, for which the AC50 in assay [2] was 8.85 µM (active).

In the case of `COC(=O)CSc1nc(C(C)C)nc2ccccc12`, the IC50 in assay [8] is > 69.5 µM (not active); on Major prion protein, 0.91 µM (active); in “cells [7]”, > 138 µM (inactive).

For the molecule `CN(C)C(=O)c1cccc(-c2ccc([C@H]3[C@H](CO)N4CCCCN(C(=O)C5CCCC5)C[C@@H]34)cc2)c1`, in assay [9], the AC50 is 0.065 µM (active).

For `O=C1CN(S(=O)(=O)Cc2ccccc2)C[C@@H]2[C@H](c3ccc(C#Cc4ccc(F)cc4)cc3)[C@H](CO)N12`, the AC50 at Paired box protein Pax-8 was 9.68 µM (active); in assay [10], 31 µM (active); in [11] it was 52.7 µM (active).

`CO[C@H]1CN(C)C(=O)c2cc(NC(=O)Nc3ccc(Cl)c(Cl)c3)ccc2OC[C@@H](C)NC[C@H]1C`: in assay [12], the AC50 is > 52 µM (inactive).

Regarding `O=C(Nc1ccccc1F)c1ccc(OCc2ccccc2)cc1`, the IC50 in assay [13] is > 99 µM (inactive); on Caspase-3 it was 10.3 µM (active); in assay [14] it was > 99 µM (inactive); in the assay “cells [15]”, > 29.9 µM (inactive). In the assay “cells [16]”, the EC50 is > 29.9 µM (inactive).

Consider `COc1ccc(-c2ccc([C@@H]3[C@@H](CO)N4CCCCN(C(=O)Cc5ccccc5)C[C@H]34)cc2)cc1`, for which the AC50 is 41.5 µM (active) at Paired box protein Pax-8, 40.8 µM (active) in [17], 6.32 µM (active) in assay [18] and > 39 µM (inactive) in assay [19].

One may read the AC50 as the midpoint of the concentration-response curve, whichever way the signal moves. What is called IC50 is the point on the concentration scale where inhibition reaches its midpoint. For orientation: EC50 means the concentration giving half of the maximal effect.

These data come from ChEMBL document CHEMBL1201862, “PubChem BioAssay data set” (2004).
